Measurements taken from patent US20080009418A1, “Selective Inhibitors” (Alchemia LTD., priority 2004, published 2008).

Columns and labels:
Human neurokinin (NK1) = biological target: T1, Human neurokinin (NK1) (Homo sapiens, UniProt P25103); test: Radioligand binding, human neurokinin NK1 membranes, filtration, [125I]-Substance P; conditions: compound at 10 μM, [125I]-Substance P
T1 construct: purchased Perkin Elmer Biosignal
Outline: (§1)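 Membranes from cloned human receptors were incubated with compound and radioligand for 1 hour at room temperature. Bound ligand was collected on 0.3% PEI-soaked filters, washed with cold 50 mM Tris-HCl pH 7.4, and counted by scintillation. Percent inhibition was computed against DMSO totals and reference-ligand nonspecific wells.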

Human κ-Opioid (KOP) = biological target: T2, Human κ-Opioid (KOP) (Homo sapiens, UniProt P41145); test: Radioligand binding, human κ-opioid (KOP) membranes, filtration, [3H]-Diprenorphine; conditions: compound at 10 μM, [3H]-Diprenorphine
T2 construct: purchased Perkin Elmer Biosignal
T2 sequence (P41145 whole entry): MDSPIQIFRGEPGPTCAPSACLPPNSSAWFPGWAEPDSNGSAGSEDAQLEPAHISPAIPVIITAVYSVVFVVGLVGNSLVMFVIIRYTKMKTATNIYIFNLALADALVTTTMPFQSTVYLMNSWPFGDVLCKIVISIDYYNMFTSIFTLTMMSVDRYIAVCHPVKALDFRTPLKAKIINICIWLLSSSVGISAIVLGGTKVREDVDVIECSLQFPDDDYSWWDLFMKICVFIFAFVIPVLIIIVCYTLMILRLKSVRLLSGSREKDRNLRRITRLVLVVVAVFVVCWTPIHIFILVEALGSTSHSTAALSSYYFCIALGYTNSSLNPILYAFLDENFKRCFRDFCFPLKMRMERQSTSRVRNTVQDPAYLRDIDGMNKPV
Outline: as §1

Mouse urotensin (mUR2) = biological target: T3, Mouse urotensin (mUR2) (Mus musculus, UniProt Q8VIH9); test: Radioligand binding, mouse urotensin mUR2 membranes, FlashPlate, [125I]-Urotensin II; conditions: compound at 10 μM, [125I]-Urotensin II
T3 construct: purchased Perkin Elmer Biosignal
T3 sequence (Q8VIH9 1-385): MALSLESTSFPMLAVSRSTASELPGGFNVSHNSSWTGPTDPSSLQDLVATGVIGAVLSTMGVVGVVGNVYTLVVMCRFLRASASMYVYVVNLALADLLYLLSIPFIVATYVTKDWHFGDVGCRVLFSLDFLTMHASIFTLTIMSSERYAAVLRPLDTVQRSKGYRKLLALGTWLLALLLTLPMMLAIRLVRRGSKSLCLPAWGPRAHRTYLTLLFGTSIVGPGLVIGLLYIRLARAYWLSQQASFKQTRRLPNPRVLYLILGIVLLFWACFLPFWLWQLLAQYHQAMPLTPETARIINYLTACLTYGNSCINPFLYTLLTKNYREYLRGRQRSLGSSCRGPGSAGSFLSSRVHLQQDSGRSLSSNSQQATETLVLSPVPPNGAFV
Outline: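 Cloned mouse urotensin (mUR2) receptor membranes from Perkin Elmer Biosignal were immobilized in FlashPlate microplates using a proprietary coating. Each well got 19.5 μl buffer, then 0.5 μl of DMSO, reference ligand, or compound. Adding 5 μl of [125I]-Urotensin II, diluted to 5× final concentration in binding buffer, started binding. Plates were sealed with TopSeal-A and incubated 1 hour at room temperature in the dark. Wells were counted for 30 seconds each on a TopCount after a 60-second delay, and percentage inhibition was calculated.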

Human δ-opioid (DOP) = biological target: T4, Human δ-opioid (DOP) (Homo sapiens, UniProt P41143); test: Radioligand binding, human δ-opioid (DOP) membranes, FlashPlate, [3H]-Bremazocine; conditions: compound at 10 μM, [3H]-Bremazocine
T4 construct: purchased Perkin Elmer Biosignal
T4 sequence (P41143 whole entry): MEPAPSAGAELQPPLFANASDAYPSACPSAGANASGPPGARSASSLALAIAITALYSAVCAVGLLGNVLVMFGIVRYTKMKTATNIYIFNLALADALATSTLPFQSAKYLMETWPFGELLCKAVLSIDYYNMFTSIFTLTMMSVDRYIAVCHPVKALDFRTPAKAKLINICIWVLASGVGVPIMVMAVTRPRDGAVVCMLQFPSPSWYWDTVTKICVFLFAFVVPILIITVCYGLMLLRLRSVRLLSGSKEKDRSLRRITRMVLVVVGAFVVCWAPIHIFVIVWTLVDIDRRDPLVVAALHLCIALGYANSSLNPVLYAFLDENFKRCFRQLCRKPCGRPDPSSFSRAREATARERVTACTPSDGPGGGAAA
Outline: (§2)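 Cloned human receptor membranes were coated onto FlashPlate wells and incubated with radioligand and compound (added from a 0.5 mM DMSO daughter plate) for 1 hour at room temperature in the dark. Scintillation counting gave percent inhibition, with DMSO defining total and reference ligand defining non-specific binding.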

Human Melanocortin (MC3) = biological target: T5, Human Melanocortin (MC3) (Homo sapiens, UniProt P41968); test: Radioligand binding, human melanocortin MC3 membranes, FlashPlate, [125I]-NDP-αMSH; conditions: compound at 10 μM, [125I]-NDP-αMSH
T5 construct: purchased Perkin Elmer Biosignal
T5 sequence (P41968 whole entry): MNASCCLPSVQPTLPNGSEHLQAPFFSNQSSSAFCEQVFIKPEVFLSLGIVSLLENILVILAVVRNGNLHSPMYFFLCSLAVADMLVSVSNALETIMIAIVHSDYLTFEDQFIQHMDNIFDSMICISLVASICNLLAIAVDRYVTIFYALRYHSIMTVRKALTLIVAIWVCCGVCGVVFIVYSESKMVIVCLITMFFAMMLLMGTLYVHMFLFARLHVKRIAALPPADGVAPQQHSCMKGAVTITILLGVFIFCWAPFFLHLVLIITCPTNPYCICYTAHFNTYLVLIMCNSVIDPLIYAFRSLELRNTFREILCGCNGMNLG
Outline: as §2

Human μ-opioid (MOP) = biological target: T6, Human μ-opioid (MOP) (Homo sapiens, UniProt P35372); test: Radioligand binding, human μ-opioid (MOP) membranes, FlashPlate, [3H]-Naloxone; conditions: compound at 10 μM, [3H]-Naloxone
T6 construct: purchased Perkin Elmer Biosignal
T6 sequence (P35372 whole entry): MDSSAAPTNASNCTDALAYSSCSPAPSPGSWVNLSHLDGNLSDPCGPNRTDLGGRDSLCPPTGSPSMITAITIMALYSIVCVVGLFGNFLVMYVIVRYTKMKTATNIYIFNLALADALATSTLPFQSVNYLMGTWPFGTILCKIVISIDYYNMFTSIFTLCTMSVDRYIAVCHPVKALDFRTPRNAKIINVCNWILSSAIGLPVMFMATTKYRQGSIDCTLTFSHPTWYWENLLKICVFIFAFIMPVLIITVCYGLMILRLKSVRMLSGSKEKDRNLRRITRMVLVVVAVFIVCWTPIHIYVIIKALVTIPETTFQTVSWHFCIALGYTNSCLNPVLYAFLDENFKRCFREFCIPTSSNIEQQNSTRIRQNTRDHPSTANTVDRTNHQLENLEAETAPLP
Outline: as §2

Human opioid (ORL1) = biological target: T7, Human opioid (ORL1) (Homo sapiens, UniProt P41146); test: Radioligand binding, human opioid ORL1 membranes, FlashPlate, [125I]-Nociceptin; conditions: compound at 10 μM, [125I]-Nociceptin
T7 construct: purchased Perkin Elmer Biosignal
T7 sequence (P41146 whole entry): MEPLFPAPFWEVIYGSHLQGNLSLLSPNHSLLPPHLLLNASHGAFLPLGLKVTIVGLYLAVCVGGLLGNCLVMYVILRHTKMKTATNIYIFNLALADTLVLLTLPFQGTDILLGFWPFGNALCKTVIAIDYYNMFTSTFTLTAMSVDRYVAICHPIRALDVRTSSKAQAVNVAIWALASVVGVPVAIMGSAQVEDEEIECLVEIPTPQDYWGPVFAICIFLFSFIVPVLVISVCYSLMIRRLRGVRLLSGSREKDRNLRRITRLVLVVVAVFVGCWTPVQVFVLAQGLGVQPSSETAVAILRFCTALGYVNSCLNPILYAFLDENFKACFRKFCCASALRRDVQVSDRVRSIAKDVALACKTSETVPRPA
Outline: as §2

Human Melanocortin (MC4) = biological target: T8, Human Melanocortin (MC4) (Homo sapiens, UniProt P32245); test: Radioligand binding, human melanocortin MC4 membranes, FlashPlate, [125I]-NDP-αMSH; conditions: compound at 10 μM, [125I]-NDP-αMSH
T8 construct: purchased Perkin Elmer Biosignal
T8 sequence (P32245 whole entry): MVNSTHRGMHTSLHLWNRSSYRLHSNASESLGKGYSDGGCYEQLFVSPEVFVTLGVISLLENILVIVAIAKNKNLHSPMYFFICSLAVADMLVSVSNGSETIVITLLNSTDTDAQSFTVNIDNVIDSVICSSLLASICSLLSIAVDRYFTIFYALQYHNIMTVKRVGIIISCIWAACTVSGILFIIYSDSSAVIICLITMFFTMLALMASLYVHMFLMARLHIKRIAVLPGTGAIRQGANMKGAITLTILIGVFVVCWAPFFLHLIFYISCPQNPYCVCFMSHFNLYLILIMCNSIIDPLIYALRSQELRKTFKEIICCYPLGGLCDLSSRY
Outline: as §2

[1] = biological target: T9, Human melanin-concentrating hormone (MCH1) (Homo sapiens, UniProt Q99705); test: Radioligand binding, human melanin-concentrating hormone MCH1 membranes, FlashPlate, [125I]-S36057; conditions: compound at 10 μM; for A6: inhibition of radioligand binding, human melanin-concentrating hormone (MCH1): [125I]-S36057
T9 construct: purchased Perkin Elmer Biosignal
T9 sequence (Q99705 whole entry): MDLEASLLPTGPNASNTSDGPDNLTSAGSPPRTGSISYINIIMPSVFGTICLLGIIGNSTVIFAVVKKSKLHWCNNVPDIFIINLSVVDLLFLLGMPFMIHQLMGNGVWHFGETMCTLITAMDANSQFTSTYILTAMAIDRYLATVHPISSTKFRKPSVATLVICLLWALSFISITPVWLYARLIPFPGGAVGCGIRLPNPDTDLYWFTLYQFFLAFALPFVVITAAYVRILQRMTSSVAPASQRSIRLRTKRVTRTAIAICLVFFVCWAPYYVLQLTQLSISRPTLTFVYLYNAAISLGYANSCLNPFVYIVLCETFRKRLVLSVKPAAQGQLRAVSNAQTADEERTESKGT
Outline: as §2

Human melanocortin (MC5) = biological target: T10, Human melanocortin (MC5) (Homo sapiens, UniProt P33032); test: Radioligand binding, human melanocortin MC5 membranes, FlashPlate, [125I]-NDP-αMSH; conditions: compound at 10 μM, [125I]-NDP-αMSH
T10 construct: purchased Perkin Elmer Biosignal
T10 sequence (P33032 whole entry): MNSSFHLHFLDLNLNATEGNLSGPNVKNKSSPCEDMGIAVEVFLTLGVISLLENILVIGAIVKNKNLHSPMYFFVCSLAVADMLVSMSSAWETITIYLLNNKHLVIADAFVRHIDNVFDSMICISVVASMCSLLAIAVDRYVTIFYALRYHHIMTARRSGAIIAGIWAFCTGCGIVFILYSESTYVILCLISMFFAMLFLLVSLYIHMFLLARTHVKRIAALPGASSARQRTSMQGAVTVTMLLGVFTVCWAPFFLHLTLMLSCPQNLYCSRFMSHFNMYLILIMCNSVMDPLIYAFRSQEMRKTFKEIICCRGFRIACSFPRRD
Outline: as §2

[2] = biological target: T11, Human neuropeptide Y (NPY-Y1) (Homo sapiens, UniProt P25929); test: Radioligand binding, human neuropeptide Y NPY-Y1 membranes, FlashPlate, [125I]-PYY; conditions: compound at 10 μM, [125I]-PYY
T11 construct: purchased Perkin Elmer Biosignal
T11 sequence (P25929 1-384): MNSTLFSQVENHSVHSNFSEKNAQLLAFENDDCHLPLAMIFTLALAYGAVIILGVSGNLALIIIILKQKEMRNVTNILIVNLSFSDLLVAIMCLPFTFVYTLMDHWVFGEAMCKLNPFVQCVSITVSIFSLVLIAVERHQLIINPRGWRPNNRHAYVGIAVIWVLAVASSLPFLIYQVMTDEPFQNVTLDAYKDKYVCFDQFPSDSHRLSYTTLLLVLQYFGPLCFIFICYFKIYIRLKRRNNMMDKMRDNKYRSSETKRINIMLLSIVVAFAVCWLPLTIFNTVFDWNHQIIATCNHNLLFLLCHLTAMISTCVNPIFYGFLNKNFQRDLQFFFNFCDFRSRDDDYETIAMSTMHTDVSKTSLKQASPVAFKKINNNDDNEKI
Outline: as §2

T1 sequence (P25103 whole entry): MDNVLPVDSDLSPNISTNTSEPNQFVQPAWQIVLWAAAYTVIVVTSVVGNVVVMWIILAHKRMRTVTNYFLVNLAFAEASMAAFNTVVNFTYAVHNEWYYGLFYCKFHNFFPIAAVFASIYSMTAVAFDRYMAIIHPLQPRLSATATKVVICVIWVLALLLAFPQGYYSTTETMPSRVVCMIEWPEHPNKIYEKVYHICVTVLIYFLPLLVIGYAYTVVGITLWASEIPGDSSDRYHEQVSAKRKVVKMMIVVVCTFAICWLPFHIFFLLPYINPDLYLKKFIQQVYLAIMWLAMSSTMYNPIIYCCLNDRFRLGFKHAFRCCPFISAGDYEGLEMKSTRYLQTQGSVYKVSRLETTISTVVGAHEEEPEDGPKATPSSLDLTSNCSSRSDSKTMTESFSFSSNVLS

Row | Structure (SMILES) | A8: inhibition of radioligand binding, human neurokinin (NK1) (Human neurokinin (NK1)) | A11: inhibition of radioligand binding, mouse urotensin (mUR2) (Mouse urotensin (mUR2)) | A1: inhibition of radioligand binding, human δ-opioid (DOP) (Human δ-opioid (DOP)) | A7: inhibition of radioligand binding, human μ-opioid (MOP) (Human μ-opioid (MOP)) | A10: inhibition of radioligand binding, human opioid (ORL1) (Human opioid (ORL1)) | A9: inhibition of radioligand binding, human neuropeptide Y (NPY-Y1) [2] | A2: inhibition of radioligand binding, human κ-opioid (KOP) (Human κ-Opioid (KOP)) | A3: inhibition of radioligand binding, human melanocortin (MC3) (Human Melanocortin (MC3)) | A4: inhibition of radioligand binding, human melanocortin (MC4) (Human Melanocortin (MC4)) | A6: inhibition of radioligand binding, human melanin-concentrating hormone (MCH1) [1] | A5: inhibition of radioligand binding, human melanocortin (MC5) (Human melanocortin (MC5)) | also measured
1 | N=C(N)NCCC(=O)N[C@H]1C(OCc2ccc(Cl)cc2)O[C@H](COCc2ccc3ccccc3c2)[C@@H](O)[C@@H]1OCc1ccc2ccccc2c1 (stereo partly shown) [compound 528] | + (“+” indicates greater than 50% inhibition at 10 μM) | − (“−” indicates less than 50% inhibition at 10 μM) | − (“−” indicates less than 50% inhibition at 10 μM) | − (“−” indicates less than 50% inhibition at 10 μM) | − (“−” indicates less than 50% inhibition at 10 μM) | − (“−” indicates less than 50% inhibition at 10 μM) | – | – | – | – | – | A2: inhibition of radioligand binding, human κ-opioid (KOP) (Human κ-Opioid (KOP); 10 µM): − (“−” indicates less than 50% inhibition at 10 μM); A3: inhibition of radioligand binding, human melanocortin (MC3) (Human Melanocortin (MC3); 10 µM): − (“−” indicates less than 50% inhibition at 10 μM); A4: inhibition of radioligand binding, human melanocortin (MC4) (Human Melanocortin (MC4); 10 µM): − (“−” indicates less than 50% inhibition at 10 μM); A6: inhibition of radioligand binding, human melanin-concentrating hormone (MCH1) ([1]; 10 µM): − (“−” indicates less than 50% inhibition at 10 μM); A5: inhibition of radioligand binding, human melanocortin (MC5) (Human melanocortin (MC5); 10 µM): − (“−” indicates less than 50% inhibition at 10 μM)
2 | N=C(N)NCCCC(=O)NC1COC(COCc2ccc3ccccc3c2)C(O)C1OCc1ccc(Cl)cc1 (stereo not shown) [compound 541] | + (“+” indicates greater than 50% inhibition at 10 μM) | − (“−” indicates less than 50% inhibition at 10 μM) | − (“−” indicates less than 50% inhibition at 10 μM) | − (“−” indicates less than 50% inhibition at 10 μM) | − (“−” indicates less than 50% inhibition at 10 μM) | − (“−” indicates less than 50% inhibition at 10 μM) | − (“−” indicates less than 50% inhibition at 10 μM) | − (“−” indicates less than 50% inhibition at 10 μM) | − (“−” indicates less than 50% inhibition at 10 μM) | − (“−” indicates less than 50% inhibition at 10 μM) | − (“−” indicates less than 50% inhibition at 10 μM) | –
3 | NCCCC(=O)NC1C(OCc2ccc(Cl)cc2)OC(COCc2ccc3ccccc3c2)C(O)C1OCc1ccc2ccccc2c1 (single isomer, unassigned) [compound 496] | + (“+” indicates greater than 50% inhibition at 10 μM) | − (“−” indicates less than 50% inhibition at 10 μM) | − (“−” indicates less than 50% inhibition at 10 μM) | + (“+” indicates greater than 50% inhibition at 10 μM) | + (“+” indicates greater than 50% inhibition at 10 μM) | − (“−” indicates less than 50% inhibition at 10 μM) | − (“−” indicates less than 50% inhibition at 10 μM) | + (“+” indicates greater than 50% inhibition at 10 μM) | + (“+” indicates greater than 50% inhibition at 10 μM) | + (“+” indicates greater than 50% inhibition at 10 μM) | + (“+” indicates greater than 50% inhibition at 10 μM) | –
4 | CSC1OC(COCc2ccc(Cl)cc2)C(O)C(OCc2ccc(Cl)cc2)C1NC(=O)CN (stereo not shown) [compound 269] | – | – | – | – | – | – | – | – | – | – | – | A8: inhibition of radioligand binding (Human neurokinin (NK1); filtration): + (“+” indicates greater than 50% inhibition at 10 μM); A2: inhibition of radioligand binding (Human κ-Opioid (KOP); filtration): − (“−” indicates less than 50% inhibition at 10 μM); A11: inhibition of radioligand binding (Mouse urotensin (mUR2); FlashPlate): − (“−” indicates less than 50% inhibition at 10 μM); A1: inhibition of radioligand binding (Human δ-opioid (DOP); FlashPlate): − (“−” indicates less than 50% inhibition at 10 μM); A3: inhibition of radioligand binding (Human Melanocortin (MC3); FlashPlate): − (“−” indicates less than 50% inhibition at 10 μM); A7: inhibition of radioligand binding (Human μ-opioid (MOP); FlashPlate): − (“−” indicates less than 50% inhibition at 10 μM); A10: inhibition of radioligand binding (Human opioid (ORL1); FlashPlate): − (“−” indicates less than 50% inhibition at 10 μM); A4: inhibition of radioligand binding (Human Melanocortin (MC4); FlashPlate): − (“−” indicates less than 50% inhibition at 10 μM); A6: inhibition of radioligand binding ([1]; [125I]-S36057, FlashPlate): − (“−” indicates less than 50% inhibition at 10 μM); A5: inhibition of radioligand binding (Human melanocortin (MC5); FlashPlate): − (“−” indicates less than 50% inhibition at 10 μM); A9: inhibition of radioligand binding ([2]; FlashPlate): − (“−” indicates less than 50% inhibition at 10 μM)
5 | NCCC(=O)NC1C(OCc2ccc(Cl)cc2)OC(COCc2ccc(Cl)cc2)C(O)C1OCc1ccc(Cl)cc1 (single isomer, unassigned) [compound 476] | + (“+” indicates greater than 50% inhibition at 10 μM) | − (“−” indicates less than 50% inhibition at 10 μM) | − (“−” indicates less than 50% inhibition at 10 μM) | + (“+” indicates greater than 50% inhibition at 10 μM) | + (“+” indicates greater than 50% inhibition at 10 μM) | − (“−” indicates less than 50% inhibition at 10 μM) | − (“−” indicates less than 50% inhibition at 10 μM) | + (“+” indicates greater than 50% inhibition at 10 μM) | + (“+” indicates greater than 50% inhibition at 10 μM) | + (“+” indicates greater than 50% inhibition at 10 μM) | + (“+” indicates greater than 50% inhibition at 10 μM) | –
